Data on ten compounds can be found in patent US20250295701A1, “Kit for Induction of Continuous Expansion of Hepatoblast Organoids and/or Hepatocyte Organoids Under 3D Suspension Conditions and Use Thereof” (South China University of Technology, priority 2022, published 2025).

Data set [1] deals with hepatoblasts. Nature of the data set: Step-down removal of factors from the HB organoid expansion medium. The following applies: for Ki67 expression level after removing the factor: flow cytometry, compared with complete medium group. In kind it is cell-based, human. The text has this:
Based on the related-signaling pathways affecting the regeneration/proliferation/expansion of hepatoblasts in vivo and in vitro, the development of the medium formula for HB organoid expansion was to initially select small molecules or cytokines corresponding to the pathways to mimic the process of hepatic progenitor regeneration, and finally the combination of small molecules with cytokines had been established. Through comprehensive investigation on a large amount of literature, it had been shown that Wnt, TGFβ, cAMP, Activin, EGF and HGF pathways were related to the regeneration of hepatoblasts. […] Afterwards, the step-down method through removing factors one by one from the combination had been used to verify which small molecule/cytokine was essential for the long-term culture of hepatoblasts. […] Finally, flow cytometry had been used to detect the expression levels of cell proliferation marker Ki67. […] Therefore, finally the expansion medium of HB organoid was determined as the fifth medium in Example 1: IMDM medium supplemented with 10 % w/w FBS, 1% w/w ITS, 1% w/w NEAA, 1% w/w GlutaMAX, 10 mM Nicotinamide, 5 μM CHIR99021, 10 µM SB431542, 10 μM FSK, 20 ng/mL FGF-4, 20 ng/mL BMP4, 20 ng/mL EGF and 5% Matrigel.
For orientation: A flow cytometer gives signals particle by particle.

Data set [2] relates to polarized hepatocyte organoids. Nature of the data set: Cholestasis detection by CDFDA staining. In kind it is cell-based, human. The following applies: drug at its IC25 value for 48 hours. On the procedure:
In addition, CDFDA staining was used to test the appearance of the cholestasis in polarized hepatocyte organoids which are treated by these drugs at IC25 values of each drug for 48 hours, and then the occurrence of the cholestasis after drug treatment was evaluated by whether fluorescent CDFDA product is transported into bile canaliculi through apical protein.

The subject of data set [3] is polarized hepatocyte organoids. Nature of the data set: Drug toxicology analysis (cell viability, IC50) in polarized hepatocyte organoids. It is filed as cell-based, human. The following applies: 48 hours after drug treatment, cell viability detection kit. On the procedure:
Polarized hepatocyte organoids (could be used in drug screening models 6 days after the maturation) after the maturation from the differentiation were collected, and distributed into ultra-low attachment 96-well culture plates using the pipette, about 10-20 organoids were seeded in each well, then different drugs could be employed for toxicology analysis. In this Example, toxicology analysis was performed on 8 kinds of drugs (Mannitol, Troglitazone, Chlorpromazine, Diclofenac, Cyclosporine A, Nefazodone, Tolcapone, Bosentan) to detect the ability of polarized hepatocyte organoids to predict the toxicity of each drug during drug screening/toxicology analysis. During the toxicology analysis, at least 7 different concentrations were selected for each drug, and wells in triplicate were performed for each concentration. Forty-eight hours after drug treatment, cell viabilities are detected using cell viability detection kit and IC50 curves were drawn. Finally, IC50 value of each drug for each cell type was calculated. In addition to polarized hepatocyte organoids, non-polarized hepatocyte spheroids and HepG2 cells (hepatoma cell lines, commonly used for hepatocyte drug screening) spheroids were also simultaneously used for drug toxicology analysis.

For data set [4], the system named is hepatocyte organoids. Nature of the data set: Hepatocyte lipid accumulation model induced with oleic acid. In kind it is cell-based, human. On the procedure: After mature hepatocyte organoids were differentiated from long-term cultured HB organoids (the lipid accumulation model could be developed 6 days after the differentiation), oleic acid (OA) was used with the concentrations at 200 and 800 μM to induce the lipid accumulation model. […] Next spermidine (SPD), a drug that alleviates lipid accumulation in hepatocytes, was used to conduct the rescue. SPD was added into the medium at 200 μM at the same time during the treatment with OA. […] The above results lay the foundation for the subsequent applications of polarized hepatocyte organoids in the development of drugs related to hepatocyte lipid accumulation and the treatment of lipid accumulation.

For data set [5], the system named is phase I metabolizing enzymes.
The mark [6] stands for this setting: factor removed from complete medium.

For `Cc1c[nH]c(-c2cnc(NCCNc3ccc(C#N)cn3)nc2-c2ccc(Cl)cc2Cl)n1` [CHIR99021], in data set [1] (setting [6]), the “efficiency of cloning formation after removing the factor” value was “significantly reduced” and the “morphological changes of cell spheroids after removing the factor” value is reported as “unable to form hollow organoid-like structures”. Regarding `O=C(O)Cc1ccccc1Nc1c(Cl)cccc1Cl` [Dicofenac, Diclofenac], in data set [2], the “occurrence of the cholestasis” value is listed as “do not induce the cholestasis”. As for `OC[C@@H](O)[C@@H](O)[C@H](O)[C@H](O)CO` [Mannitol], the “occurrence of the cholestasis” value in data set [2] is “do not induce the cholestasis”. Also, the toxicity to hepatocytes entry in data set [3] is “no toxic”. With `CCCCCCCC/C=C\CCCCCCCC(=O)O` [OA, oleic acid], the “levels of intracellular ROS” value in data set [4] (OA 200 and 800 μM, flow cytometry) is “increased”. In data set [4] (OA 200 and 800 μM, kit), the “levels of intracellular triglyceride” value is “increase”. In addition, in data set [4] (OA 200 and 800 μM, two days, oil red staining), the “content of lipid droplets” value is “gradually increased”. Further, in data set [4] (after OA modeling, qPCR), the “expression levels of lipid accumulation related genes FASN and PLIN2” value is “significantly increased”. For `NC(=O)c1ccc(-c2nc(-c3ccc4c(c3)OCO4)c(-c3ccccn3)[nH]2)cc1` [SB431542], in data set [1] (setting [6]), the “efficiency of cloning formation after removing the factor” value is given as “significantly reduced”. `NCCCCNCCCN` [SPD, spermidine]: the “relative number of lipid droplets” value in data set [4] (SPD 200 μM added with OA, two days) was “significantly reduced”. The “expression levels of genes related to lipid accumulation” value in data set [4] (SPD 200 μM added with OA, two days, qPCR) is “decreased”. As to `Cc1ccc(C(=O)c2cc(O)c(O)c([N+](=O)[O-])c2)cc1` [Tolcapone], the “occurrence of the cholestasis” value in data set [2] is “do not induce the cholestasis”. Consider `C[C@@H](N)[C@H]1CC[C@H](C(=O)Nc2ccncc2)CC1` [Y27632, Y-27632], for which, in data set [1] (added at cell inoculation), the “effect of Rock inhibitor during the expansion of HB organoids” value is “only maintains cell viability at day 0”. Moreover, the “Ki67 expression level after removing the factor” value in data set [1] is “higher expression peak”. Regarding `COc1ccc2[nH]c([S+]([O-])Cc3ncc(C)c(OC)c3C)nc2c1` (centres unmarked) [omeprazole], in data set [5], the “drug metabolism levels (metabolic function of CYP3A4, CYP2C9 and CYP1A2)” value is “higher”.

In the case of hepatocyte growth factor [HGF], in data set [1], the “Ki67 expression level after removing the factor” value is “higher expression peak”.
